Structures are written as SMILES. Values after ≈ are worked out from the molar mass of the structure shown.

Results on three compounds are retold here after ChEMBL document CHEMBL5104178, “Nitroimidazopyrazinones with Oral Activity against Tuberculosis and Chagas Disease in Mouse Models of Infection” (J Med Chem, 2022).

Data set [1] can be described thus: Solubility of compound in water by LC-UV analysis. It counts as physicochemical. The following applies: water; read-out: solubility.
The test system of data set [2] is Mycobacterium tuberculosis. In words: Antimycobacterial activity against Mycobacterium tuberculosis H37Ra ATCC 25177 assessed as bacterial growth inhibition incubated for 6 days under normoxic condition by resazurin microtiter assay. The format is functional. The following applies: H37Ra ATCC 25177, 144 h, time 6 day.
Data set [3] deals with Mycobacterium avium. As to the kind of experiment: Antimycobacterial activity against Mycobacterium avium ATCC 25291 assessed as bacterial growth inhibition incubated for 6 days under normoxic condition by resazurin microtiter assay. The format is functional. As to conditions: ATCC 25291, 144 h, time 6 day. In general terms: Resazurin is reduced to fluorescent resorufin, in cell work by metabolically active cells.

In data set [4] the test system is Mycolicibacterium smegmatis. In words: Antimycobacterial activity against Mycobacterium smegmatis mc2155 ATCC 700084 assessed as bacterial growth inhibition incubated for 24 hrs under normoxic condition by resazurin microtiter assay. The format is functional.
Data set [5] in a line: Plasma protein binding in human. It counts as ADME, cell-free. The following applies: read-out: PPB (converted).
Data set [6] can be described thus: Plasma protein binding in mouse. The format is ADME, cell-free. As to conditions: read-out: PPB (converted).
Data set [7] is described as follows: Metabolic stability in human microsomes assessed as compound remaining measured after 2 hrs. The format is ADME, Microsome. The following applies: read-out: Stability.
The nature of data set [8]: Metabolic stability in mouse microsomes assessed as compound remaining measured after 2 hrs. The format is ADME, Microsome. As to conditions: read-out: Stability.
The nature of data set [9]: Stability in human plasma assessed as compound remaining measured after 2 hrs. The format is ADME, cell-free. The following applies: read-out: Stability.
Data set [10] can be described thus: Stability in mouse plasma assessed as compound remaining measured after 2 hrs. It counts as ADME, cell-free. As to conditions: read-out: Stability.
The nature of data set [11]: Cmax in CD-1 mouse at 20 mg/kg, po administered as DMSO/PEG400 formulation measured upto 24 hrs by LC-MS/MS analysis. It counts as ADME, organism-based. Also noted: dose 20 mg/kg, time < 24 hrs, route po. The following applies: in vivo.
Data set [12] can be described thus: Tmax in CD-1 mouse at 20 mg/kg, po administered as DMSO/PEG400 formulation measured upto 24 hrs by LC-MS/MS analysis. It counts as ADME, organism-based. As to conditions: in vivo.
A short description of data set [13]: Half life in CD-1 mouse at 20 mg/kg, po administered as DMSO/PEG400 formulation measured upto 24 hrs by LC-MS/MS analysis. It counts as ADME, organism-based. As to conditions: in vivo.
Data set [14] is described as follows: Oral bioavailability in CD-1 mouse at 20 mg/kg administered as DMSO/PEG400 formulation measured upto 24 hrs by LC-MS/MS analysis. The format is ADME, organism-based. As to conditions: in vivo.
Data set [15] can be described thus: Volume of distribution at steady state in CD-1 mouse at 5 mg/kg, iv administered as DMSO/PEG400 formulation measured upto 24 hrs by LC-MS/MS analysis. It counts as ADME, organism-based. As to conditions: in vivo, read-out: Vdss.
Data set [16] in a line: Clearance in CD-1 mouse at 5 mg/kg, iv administered as DMSO/PEG400 formulation measured upto 24 hrs by LC-MS/MS analysis. The format is ADME, organism-based. The following applies: in vivo.
A short description of data set [17]: Half life in CD-1 mouse at 5 mg/kg, iv administered as DMSO/PEG400 formulation measured upto 24 hrs by LC-MS/MS analysis. It counts as ADME, organism-based. As to conditions: in vivo.
Data set [18] can be described thus: AUC(0 to 24 hrs) in CD-1 mouse at 20 mg/kg, po administered as DMSO/PEG400 formulation measured upto 24 hrs by LC-MS/MS analysis. The format is ADME, organism-based. Also noted: dose 20 mg/kg, time < 24 hrs, route po. The following applies: in vivo.
The subject of data set [19] is Mycobacterium tuberculosis. In words: Antimycobacterial activity against Mycobacterium tuberculosis infected in BALB/c mouse assessed as log reduction in bacterial load in lung by measuring colony forming unit at 12.5 to 50 mg/kg, po administered 5 days per week for 3 weeks starting from day 10 post infection (reference value: 8.8 x 10^3 CFU). It counts as functional. The following applies: dose 12.5-50 mg/kg.

The nature of data set [20]: Toxicity in BALB/c mouse infected with Mycobacterium tuberculosis assessed as mortality at 12.5 to 50 mg/kg, po administered 5 days per week for 3 weeks starting from day 10 post infection. The following applies: in vivo, 504 h, dose 12.5-50 mg/kg. The format is organism-based.
Data set [21] is described as follows: Toxicity in BALB/c mouse infected with Mycobacterium tuberculosis assessed as body weight loss at 12.5 to 50 mg/kg, po administered 5 days per week for 3 weeks starting from day 10 post infection. The following applies: in vivo, 120 h, dose 12.5-50 mg/kg, time 5 day. The format is organism-based.
Data set [22] in a line: Solubility of compound in water at pH 7 by LC-UV analysis. It counts as physicochemical.
A short description of data set [23]: Solubility of compound in water at 0.1 M HCl at pH 1 by LC-UV analysis. It counts as physicochemical. The following applies: 0.1 M HCl in water.
Data set [24] has as its system Trypanosoma cruzi. As to the kind of experiment: Antitrypanosomal activity against Trypanosoma cruzi Tulahuen amastigotes infected in mouse 3T3 cells assessed as inhibition of parasite growth incubated for 48 hrs by […] staining based analysis. It counts as functional, organism-based. The following applies: NIH3T3, time 48 hrs.
Data set [25] deals with Trypanosoma cruzi. As to the kind of experiment: Antitrypanosomal activity against Trypanosoma cruzi Tulahuen amastigotes infected in mouse 3T3 cells assessed as reduction in parasite growth at Emax concentration incubated for 48 hrs by […] staining based analysis. Also noted: scale not given: the % may be the effect or the level left. It counts as functional.
Data set [26] is described as follows: Cytotoxicity against mouse 3T3 cells. It counts as toxicity, cell-based. As to conditions: NIH3T3 cells.
For data set [27], the system named is Mycobacterium tuberculosis. As to the kind of experiment: Antimycobacterial activity against Mycobacterium tuberculosis H37Rv ATCC 27294 assessed as bacterial growth inhibition incubated for 5 days under normoxic condition by resazurin microtiter assay. The format is functional. As to conditions: H37Rv ATCC 27294, 120 h, time 5 day.
Data set [28] deals with Mycobacterium tuberculosis. In words: Antimycobacterial activity against Mycobacterium tuberculosis H37Rv ATCC 27294 assessed as bacterial growth inhibition incubated for 5 days under hypoxic condition by resazurin microtiter assay. The following applies: H37Rv ATCC 27294, 120 h, time 5 day. It counts as functional.
The test system of data set [29] is Mycobacterium tuberculosis. In words: Antimycobacterial activity against Mycobacterium tuberculosis infected in BALB/c mouse assessed as log reduction in bacterial load in lung by measuring colony forming unit at 15 mg/kg, po administered 5 days per week for 3 weeks starting from day 10 post infection (reference value: 8.8 x 10^3 CFU). It counts as functional.

Data set [30] relates to Mycobacterium tuberculosis. As to the kind of experiment: Substrate activity at Mycobacterium tuberculosis Ddn expressed in Escherichia coli BL21 (DE3) assessed as oxidation of F420H2 by measuring Kcat by spectrophotometric analysis.
In data set [31] the test system is Mycobacterium tuberculosis. As to the kind of experiment: Substrate activity at Mycobacterium tuberculosis Ddn expressed in Escherichia coli BL21 (DE3) assessed as oxidation of F420H2 by measuring Km by spectrophotometric analysis.
For data set [32], the system named is Mycobacterium tuberculosis. As to the kind of experiment: Substrate activity at Mycobacterium tuberculosis Ddn expressed in Escherichia coli BL21 (DE3) assessed as oxidation of F420H2 by measuring Kcat/Km by spectrophotometric analysis.
Data set [33] can be described thus: AUC(0 to 8 hrs) in CD-1 mouse at 20 mg/kg, po administered as DMSO/PEG400 formulation measured upto 24 hrs by LC-MS/MS analysis. It counts as ADME, organism-based. Details: dose 20 mg/kg, time < 24 hrs, route po. As to conditions: in vivo.
Data set [34] relates to Mycobacterium tuberculosis. As to the kind of experiment: Antimycobacterial activity against Mycobacterium tuberculosis infected in BALB/c mouse assessed as log reduction in bacterial load in lung by measuring colony forming unit at 12.5 mg/kg, po administered 5 days per week for 3 weeks starting from day 10 post infection (reference value: 8.8 x 10^3 CFU). It counts as functional.

Data set [35] relates to Mycobacterium tuberculosis. In words: Antimycobacterial activity against Mycobacterium tuberculosis infected in BALB/c mouse assessed as log reduction in bacterial load in lung by measuring colony forming unit at 25 mg/kg, po administered 5 days per week for 3 weeks starting from day 10 post infection (reference value: 8.8 x 10^3 CFU). It counts as functional.
Data set [36] has as its system Mycobacterium tuberculosis. As to the kind of experiment: Antimycobacterial activity against Mycobacterium tuberculosis infected in BALB/c mouse assessed as log reduction in bacterial load in lung by measuring colony forming unit at 50 mg/kg, po administered 5 days per week for 3 weeks starting from day 10 post infection (reference value: 8.8 x 10^3 CFU). It counts as functional.

With `O=c1c2nc([N+](=O)[O-])cn2ccn1Cc1ccc(OC(F)(F)F)cc1`, the solubility in data set [1], in data set [22] and in data set [23] was under 1 µM throughout. Also, the results for the MIC in data set [2], in [3] and in data set [4] were 0.031 µg/mL (≈ 0.0875 µM), over 32 µg/mL and over 32 µg/mL, respectively. Besides, the fraction unbound in data set [5] and in data set [6] was under 0.01 each time. Moreover, the remaining at 2 h in data set [7] was over 99%; in [8], over 99%; in data set [9], 98%; in data set [10], over 99%. Further, the Cmax in data set [11] stood at 3300 ng/mL. The time to peak (Tmax) in [12] amounted to 5.3 h. For the same compound, the values for the half-life in data set [13] and in data set [17] were 288 min and 228 min, respectively. This compound came in with a bioavailability in data set [14] of 98%. Also, in [15], the Vd was determined as 2.2 L/kg. Besides, in data set [16], the clearance was 6.36 mL/min/kg. This compound showed an AUC(0-t) at 24 h in data set [18] of 38900 ng·h/mL. In [19], the “log(activity)” value was found to be 0.21. In addition, the values for the Activity entry in data set [20], in [21] and in data set [25] were “Non-Toxic”, “Non-Toxic” and 100%, respectively. The IC90 in [24] worked out at 720 nM. In [26], the CC50 is over 73 µM.
Regarding `CO[C@H]1/C=C/O[C@@]2(C)Oc3c(C)c(O)c4c(O)c(c(/C=N/N5CCN(C)CC5)c(O)c4c3C2=O)NC(=O)/C(C)=C\C=C\[C@H](C)[C@H](O)[C@@H](C)[C@@H](O)[C@@H](C)[C@H](OC(C)=O)[C@@H]1C` [RIFAMPIN], the MIC in [27] was 0.005 µg/mL (≈ 0.00608 µM); in data set [2] it was under 0.016 µg/mL; in data set [3], 4 µg/mL (≈ 4.86 µM); in data set [4], 4 µg/mL (≈ 4.86 µM); in data set [28] it was 0.08 µg/mL (≈ 0.0972 µM). For the same compound, the “log(activity)” value in data set [29] amounted to 2.7.
In the case of `O=c1c2nc([N+](=O)[O-])cn2ccn1Cc1cccc(C(F)(F)F)c1`, in data set [1], the solubility came out at 2.9 µM (≈ 0.981 µg/mL). For the same compound, the MIC was 0.063 µg/mL (≈ 0.186 µM) in data set [27]; at most 0.016 µg/mL in [2]; over 32 µg/mL in [3]; over 32 µg/mL in data set [4]; 0.25 µg/mL (≈ 0.739 µM) in [28]. Further, the kcat in data set [30] was 1.6 10^-2/s. Besides, the Km in data set [31] is 9.4 µM. Also, the kcat/Km in [32] is 1650 M⁻¹ s⁻¹. Besides, the fraction unbound is 0.04 in data set [5] and 0.08 in data set [6]. The Cmax in data set [11] was found to be 3400 ng/mL. The AUC(0-t) at 24 h in [33] amounted to 20800 ng·h/mL. The Tmax in [12] is 2.7 h. For the same compound, the bioavailability in data set [14] was determined as 64%. In data set [15], the Vd is 1.2 L/kg. Moreover, in data set [16], the clearance amounted to 7.66 mL/min/kg. In data set [17], this compound showed a half-life of 114 min. Moreover, the “log(activity)” value stood at 0.75 in data set [34], 1.1 in data set [35] and 1.7 in data set [36]. Moreover, the Activity result in data set [20] and in data set [21] was “Non-Toxic” throughout.

A word on the solubility: it is how much of the substance goes into solution per volume. By MIC is commonly meant the lowest concentration that inhibits growth of the organism. Broadly, the Cmax is the highest concentration seen after dosing. Usually Tmax stands for the time at which the peak concentration occurs. The term half-life denotes the time in which the quantity being followed falls by half. Broadly, the bioavailability is the share of a dose that reaches the circulation, judged against a reference dose that is usually intravenous. What is called clearance is the rate of elimination divided by the concentration. For orientation: AUC(0-t) means exposure summed from dosing to a finite time, without extrapolation to infinity. The term IC90 denotes the point of the concentration-response curve where the effect stands at 90%. As usually defined, the CC50 is the concentration that lowers cell viability or growth by half. The kcat is the maximal rate divided by the concentration of active sites. One may read the Km as the substrate concentration at which the rate is half of its maximum. For orientation: kcat/Km means the turnover number divided by the Michaelis constant.
